{"source": "patent US11471391B2", "about": "“Cosmetic composition for inhibiting sebum hypersecretion” (NeoPharm Co., Ltd., priority 2019, dated 2022)", "format_in_all_cases": "cell-based", "key": {"human sebocytes [1]": {"system": "human sebocytes", "assay": "Effect of inhibiting sebum secretion, oil red O staining of IGF-1-treated human sebocytes", "method": "2. Effect of Inhibiting Sebum Secretion\n(§1) 1×10^5 (1 mL/well) of human sebocytes were adhered on a 12-well plate containing a Dulbecco's modified eagle medium (DMEM)/F12 (1:1) containing 10% fetal bovine serum (FBS).\nIn FIG. 2, each sample of a control group (1 μM) which was previously treated with IGF-1 (50 ng/ml) after culturing for 24 hours and an experimental group in which the control group was treated with Compound 1 of Example 1 (20 μM) was stained after 24 hours with a 0.5% oil red O solution for 1 hour and treated with 100% isopropanol, and an absorbance was measured by a 500 nm ELISA reader."}, "human sebocytes [2]": {"system": "human sebocytes", "assay": "Nile red staining of human sebocytes, microscopic image", "details": "Nile red 1 ug/ml for 30 minutes, FIG. 3", "method": "as §1"}, "PPAR-γ": {"system": "PPAR-γ", "assay": "Effect of inhibiting expression of PPAR-γ by Western blot in IGF-1-treated human sebocytes", "details": "human sebocytes pretreated with IGF-1 (50 ng/ml), sample 20 μM, 24 hours, FIG. 1", "method": "1. Effect of Inhibiting Expression of PPAR-γ by Western Blot\nIn the present invention, 1.5×10^5 (1 mL/well) of human sebocytes were adhered on a 12-well plate containing a Dulbecco's modified eagle medium (DMEM)/F12 (1:1) containing 10% fetal bovine serum (FBS). After culturing for 24 hours, cells were collected after 24 hours from each sample of a control group (1 μM) in which the medium was replaced with a serum-free medium and previously treated with IGF-1 (50 ng/ml) and an experimental group in which the control group was treated with Compound 1 of Example 1 (20 μM). In addition, in the present invention, the control means a sample which was not treated with IGF-1, and the comparative group means a sample in which the control group was treated with retinoic acid (20 μM). Thereafter, expression of PPAR-γ protein which is a representative lipid synthetic transcription factor of sebocytes was analyzed by the Western blot, for each of these samples."}}}
{"smiles": "CCCCCCCC(=O)C(CCCCCC)C(=O)N[C@@H](C)C(=O)OC", "note": "(stereo partly shown) [Compound 1, methyl (2-hexyl-3-oxodecanoyl)alaninate]", "values": [{"measurement": "sebum production amount (fat content in sebocytes, oil red O, absorbance 500 nm)", "setting": "human sebocytes [1]; human sebocytes pretreated with IGF-1 (50 ng/ml), 20 μM, 24 hours, FIG. 2", "value": "remarkably decreased"}, {"measurement": "dependence of the sebum production decrease on treatment concentration", "setting": "human sebocytes [1]; human sebocytes pretreated with IGF-1, oil red O, each concentration", "value": "significantly increased depending on the treatment concentration"}, {"measurement": "differentiation of fat cells (Nile red staining, microscopic image)", "setting": "human sebocytes [2]", "value": "differentiation of fat cells is more effectively derived"}, {"measurement": "inhibition of PPAR-γ activation/expression (Western blot)", "setting": "PPAR-γ", "value": "effect of inhibiting PPAR-γ activity is remarkable"}]}
